The target in experiment [1] is Tyrosine-protein kinase Lck (Homo sapiens) (UniProt P06239). Description: Inhibition of human LCK assessed as residual activity at 0.1 uM relative to control.
Experiment [2] concerns the target Ribosomal protein S6 kinase alpha-5 (Homo sapiens) (UniProt O75582). The experiment can be described thus: Inhibition of human RPS6KA5 assessed as residual activity at 1 uM relative to control.
The target in experiment [3] is Vascular endothelial growth factor receptor 1 (Homo sapiens) (UniProt P17948). Description: Inhibition of human VEGFR1 assessed as residual activity at 1 uM relative to control.
Experiment [4] deals with T1, Serine/threonine-protein kinase D1 (Homo sapiens) (UniProt Q15139).
T1 sequence (whole entry): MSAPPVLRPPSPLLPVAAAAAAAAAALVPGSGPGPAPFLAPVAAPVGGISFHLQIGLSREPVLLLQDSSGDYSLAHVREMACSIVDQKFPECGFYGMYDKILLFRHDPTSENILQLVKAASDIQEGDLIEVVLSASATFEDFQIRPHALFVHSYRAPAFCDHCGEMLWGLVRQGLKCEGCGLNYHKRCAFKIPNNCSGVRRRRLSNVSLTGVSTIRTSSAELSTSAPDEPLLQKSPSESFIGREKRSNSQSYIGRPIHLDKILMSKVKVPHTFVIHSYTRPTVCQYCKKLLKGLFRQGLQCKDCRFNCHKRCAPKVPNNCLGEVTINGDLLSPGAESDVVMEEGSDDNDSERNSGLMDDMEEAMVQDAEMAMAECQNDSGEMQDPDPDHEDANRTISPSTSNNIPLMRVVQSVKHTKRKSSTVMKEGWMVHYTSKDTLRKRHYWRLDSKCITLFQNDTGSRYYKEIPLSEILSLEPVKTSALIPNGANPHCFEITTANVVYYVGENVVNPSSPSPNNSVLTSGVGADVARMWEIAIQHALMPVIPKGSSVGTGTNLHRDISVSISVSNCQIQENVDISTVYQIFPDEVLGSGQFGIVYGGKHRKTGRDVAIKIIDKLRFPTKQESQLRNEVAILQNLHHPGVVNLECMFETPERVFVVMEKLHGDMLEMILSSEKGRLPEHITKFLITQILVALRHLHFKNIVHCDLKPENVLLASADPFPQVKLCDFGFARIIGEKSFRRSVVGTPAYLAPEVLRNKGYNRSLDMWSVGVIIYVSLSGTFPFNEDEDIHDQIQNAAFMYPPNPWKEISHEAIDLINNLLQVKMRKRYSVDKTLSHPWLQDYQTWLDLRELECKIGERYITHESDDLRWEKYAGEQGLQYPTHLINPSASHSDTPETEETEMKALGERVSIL
The experiment can be described thus: Inhibition of human PKCmu assessed as residual activity at 0.1 uM relative to control.

The species entered for experiment [5] is Homo sapiens. Description: Inhibition of human PKA assessed as residual activity at 1 uM relative to control.
The target in experiment [6] is Dual specificity mitogen-activated protein kinase kinase 1 (Homo sapiens) (UniProt Q02750). The experiment can be described thus: Inhibition of human wild type MEK1 assessed as residual activity at 1 uM relative to control.
Sequence of Dual specificity mitogen-activated protein kinase kinase 1 (Homo sapiens) (Q02750 whole entry, canonical isoform): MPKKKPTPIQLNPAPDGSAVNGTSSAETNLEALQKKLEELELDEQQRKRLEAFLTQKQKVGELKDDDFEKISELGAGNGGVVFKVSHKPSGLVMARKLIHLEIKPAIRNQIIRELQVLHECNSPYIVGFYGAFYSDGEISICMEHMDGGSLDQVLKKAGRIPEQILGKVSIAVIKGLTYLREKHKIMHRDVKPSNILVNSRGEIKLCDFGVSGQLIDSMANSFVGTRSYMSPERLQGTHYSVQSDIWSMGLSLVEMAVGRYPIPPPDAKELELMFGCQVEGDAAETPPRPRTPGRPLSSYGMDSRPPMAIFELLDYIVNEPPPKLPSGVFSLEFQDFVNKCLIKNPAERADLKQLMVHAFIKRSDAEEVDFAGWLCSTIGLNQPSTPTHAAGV
For experiment [7], the target named is Casein kinase I isoform delta (Homo sapiens) (UniProt P48730). The experiment can be described thus: Inhibition of human CK1-delta assessed as residual activity at 0.1 uM relative to control.
Sequence of Casein kinase I isoform delta (Homo sapiens) (P48730 whole entry, looked up, canonical isoform): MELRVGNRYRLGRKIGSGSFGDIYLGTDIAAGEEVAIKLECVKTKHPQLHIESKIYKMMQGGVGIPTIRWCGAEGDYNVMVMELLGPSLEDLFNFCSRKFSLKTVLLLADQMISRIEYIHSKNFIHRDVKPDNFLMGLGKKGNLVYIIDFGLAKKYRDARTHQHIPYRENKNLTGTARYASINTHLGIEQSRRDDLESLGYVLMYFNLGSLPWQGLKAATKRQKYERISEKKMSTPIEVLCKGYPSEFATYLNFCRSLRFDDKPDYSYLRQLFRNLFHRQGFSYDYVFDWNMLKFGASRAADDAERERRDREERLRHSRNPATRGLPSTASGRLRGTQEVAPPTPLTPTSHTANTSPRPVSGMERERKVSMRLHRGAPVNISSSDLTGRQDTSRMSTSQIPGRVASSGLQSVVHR
For experiment [8], the target named is Calcium/calmodulin-dependent protein kinase kinase 2 (Homo sapiens) (UniProt Q96RR4). Description: Inhibition of human CAMKK2 assessed as residual activity at 1 uM relative to control.
Sequence of Calcium/calmodulin-dependent protein kinase kinase 2 (Homo sapiens) (Q96RR4 2-588 limits assumed): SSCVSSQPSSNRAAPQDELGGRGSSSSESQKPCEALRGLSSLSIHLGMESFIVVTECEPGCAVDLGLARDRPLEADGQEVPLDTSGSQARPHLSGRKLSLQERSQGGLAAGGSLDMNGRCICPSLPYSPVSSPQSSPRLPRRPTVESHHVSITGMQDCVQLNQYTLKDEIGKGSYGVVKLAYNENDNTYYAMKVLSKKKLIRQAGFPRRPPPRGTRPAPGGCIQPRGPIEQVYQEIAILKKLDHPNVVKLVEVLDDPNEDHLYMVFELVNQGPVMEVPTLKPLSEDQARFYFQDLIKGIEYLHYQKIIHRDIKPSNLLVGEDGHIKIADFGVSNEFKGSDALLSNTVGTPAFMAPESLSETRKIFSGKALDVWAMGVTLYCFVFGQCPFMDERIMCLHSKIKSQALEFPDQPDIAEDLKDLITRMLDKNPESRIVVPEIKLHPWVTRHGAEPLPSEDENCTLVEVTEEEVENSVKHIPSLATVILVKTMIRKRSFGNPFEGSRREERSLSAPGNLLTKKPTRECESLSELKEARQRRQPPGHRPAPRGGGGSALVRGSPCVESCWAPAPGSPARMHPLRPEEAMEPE
For experiment [9], the target named is Serine/threonine-protein kinase PLK1 (Homo sapiens) (UniProt P53350). Description: Inhibition of human PLK1 assessed as residual activity at 1 uM relative to control.
In experiment [10] the target is Receptor tyrosine-protein kinase erbB-4 (Homo sapiens) (UniProt Q15303). The experiment can be described thus: Inhibition of human ERBB4 assessed as residual activity at 0.1 uM relative to control.
Sequence of Receptor tyrosine-protein kinase erbB-4 (Homo sapiens) (Q15303 whole entry): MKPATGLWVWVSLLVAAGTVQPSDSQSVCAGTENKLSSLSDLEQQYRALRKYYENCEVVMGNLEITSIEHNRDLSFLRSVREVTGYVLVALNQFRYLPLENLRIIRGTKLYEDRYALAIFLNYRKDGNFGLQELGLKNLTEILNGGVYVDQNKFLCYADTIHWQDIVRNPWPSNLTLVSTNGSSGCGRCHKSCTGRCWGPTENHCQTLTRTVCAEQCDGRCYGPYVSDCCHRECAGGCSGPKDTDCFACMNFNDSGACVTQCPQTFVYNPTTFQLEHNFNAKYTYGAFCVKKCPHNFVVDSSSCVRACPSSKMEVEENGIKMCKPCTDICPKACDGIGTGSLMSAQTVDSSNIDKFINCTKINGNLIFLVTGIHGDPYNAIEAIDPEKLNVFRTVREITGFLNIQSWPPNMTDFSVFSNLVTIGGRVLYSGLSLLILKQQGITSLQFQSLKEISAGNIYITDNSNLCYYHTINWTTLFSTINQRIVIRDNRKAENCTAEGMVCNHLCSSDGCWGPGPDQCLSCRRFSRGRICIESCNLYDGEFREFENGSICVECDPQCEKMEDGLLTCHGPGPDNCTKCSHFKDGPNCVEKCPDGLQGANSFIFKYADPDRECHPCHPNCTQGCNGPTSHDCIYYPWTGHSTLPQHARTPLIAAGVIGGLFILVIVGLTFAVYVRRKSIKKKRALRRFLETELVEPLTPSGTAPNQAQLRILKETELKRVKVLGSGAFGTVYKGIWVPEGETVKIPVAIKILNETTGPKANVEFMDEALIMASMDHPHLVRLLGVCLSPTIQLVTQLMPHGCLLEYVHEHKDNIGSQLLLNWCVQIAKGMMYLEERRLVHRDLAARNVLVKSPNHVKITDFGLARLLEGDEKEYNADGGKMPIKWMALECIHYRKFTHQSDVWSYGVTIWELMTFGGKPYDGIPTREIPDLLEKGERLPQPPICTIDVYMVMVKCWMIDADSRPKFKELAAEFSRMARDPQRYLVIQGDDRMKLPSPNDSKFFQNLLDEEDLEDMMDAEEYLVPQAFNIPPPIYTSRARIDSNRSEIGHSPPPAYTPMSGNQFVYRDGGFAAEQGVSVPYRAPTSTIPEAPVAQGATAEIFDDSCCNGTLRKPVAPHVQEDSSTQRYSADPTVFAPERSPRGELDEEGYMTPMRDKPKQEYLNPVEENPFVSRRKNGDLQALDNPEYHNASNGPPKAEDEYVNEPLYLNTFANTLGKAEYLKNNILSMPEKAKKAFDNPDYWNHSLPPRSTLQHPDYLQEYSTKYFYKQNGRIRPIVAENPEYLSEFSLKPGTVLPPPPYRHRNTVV
The target of experiment [11] is Serine/threonine-protein kinase N2 (Homo sapiens) (UniProt Q16513). The experiment can be described thus: Inhibition of human PRK2 assessed as residual activity at 0.1 uM relative to control.
Sequence of Serine/threonine-protein kinase N2 (Homo sapiens) (Q16513 whole entry, looked up): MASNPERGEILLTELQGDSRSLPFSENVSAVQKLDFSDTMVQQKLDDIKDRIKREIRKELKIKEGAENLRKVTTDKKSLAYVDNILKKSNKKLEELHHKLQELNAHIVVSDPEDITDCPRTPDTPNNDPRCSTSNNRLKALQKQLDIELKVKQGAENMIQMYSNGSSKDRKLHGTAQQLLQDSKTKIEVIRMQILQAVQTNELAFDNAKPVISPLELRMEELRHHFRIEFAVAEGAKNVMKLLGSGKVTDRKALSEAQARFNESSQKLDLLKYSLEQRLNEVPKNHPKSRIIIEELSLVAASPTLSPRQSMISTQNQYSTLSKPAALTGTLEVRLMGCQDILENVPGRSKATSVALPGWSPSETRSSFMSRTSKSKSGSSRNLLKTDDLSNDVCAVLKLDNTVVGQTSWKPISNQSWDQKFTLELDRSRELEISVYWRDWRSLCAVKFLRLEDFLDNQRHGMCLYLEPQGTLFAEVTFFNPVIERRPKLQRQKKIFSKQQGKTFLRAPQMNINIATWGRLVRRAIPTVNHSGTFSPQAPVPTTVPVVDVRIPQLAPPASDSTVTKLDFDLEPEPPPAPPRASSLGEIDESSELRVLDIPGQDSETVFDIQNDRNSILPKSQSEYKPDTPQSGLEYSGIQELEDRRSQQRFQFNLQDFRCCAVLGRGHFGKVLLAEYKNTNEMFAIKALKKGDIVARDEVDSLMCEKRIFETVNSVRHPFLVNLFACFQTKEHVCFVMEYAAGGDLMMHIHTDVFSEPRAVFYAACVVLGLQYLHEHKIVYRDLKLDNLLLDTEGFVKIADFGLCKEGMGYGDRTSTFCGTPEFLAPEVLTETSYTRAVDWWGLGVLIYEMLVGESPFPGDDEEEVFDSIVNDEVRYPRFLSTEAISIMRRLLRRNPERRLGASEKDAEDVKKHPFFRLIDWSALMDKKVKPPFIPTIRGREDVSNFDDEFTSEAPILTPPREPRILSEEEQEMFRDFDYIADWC
The target of experiment [12] is Casein kinase II subunit alpha (Homo sapiens) (UniProt P68400). Description: Inhibition of human CK2alpha1 assessed as residual activity at 0.1 uM relative to control.
Sequence of Casein kinase II subunit alpha (Homo sapiens) (P68400 whole entry, looked up): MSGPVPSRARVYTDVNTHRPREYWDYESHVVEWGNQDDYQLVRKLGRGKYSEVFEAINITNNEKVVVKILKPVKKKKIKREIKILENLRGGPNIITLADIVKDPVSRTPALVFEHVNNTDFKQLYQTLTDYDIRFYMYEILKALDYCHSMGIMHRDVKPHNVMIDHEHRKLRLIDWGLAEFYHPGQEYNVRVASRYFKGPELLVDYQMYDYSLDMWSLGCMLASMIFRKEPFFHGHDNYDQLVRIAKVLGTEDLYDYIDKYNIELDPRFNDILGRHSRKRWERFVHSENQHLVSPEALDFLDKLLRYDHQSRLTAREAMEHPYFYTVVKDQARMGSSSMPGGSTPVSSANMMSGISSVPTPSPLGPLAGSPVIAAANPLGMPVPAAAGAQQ
The target of experiment [13] is Myosin light chain kinase, smooth muscle (Homo sapiens) (UniProt Q15746). The experiment can be described thus: Inhibition of human MYLK assessed as residual activity at 1 uM relative to control.
For experiment [14], the target named is Mitogen-activated protein kinase 14 (Homo sapiens) (UniProt Q16539). The experiment can be described thus: Inhibition of human p38-alpha assessed as residual activity at 1 uM relative to control.
The target of experiment [15] is Casein kinase I isoform delta (Homo sapiens) (UniProt P48730). The experiment can be described thus: Inhibition of human CK1-delta assessed as residual activity at 1 uM relative to control.
Experiment [16] addresses Mitogen-activated protein kinase kinase kinase 11 (Homo sapiens) (UniProt Q16584). Description: Inhibition of human MAP3K11 assessed as residual activity at 0.1 uM relative to control.
Experiment [17] concerns the target Casein kinase II subunit alpha (Homo sapiens) (UniProt P68400). Description: Inhibition of human CK2alpha1 assessed as residual activity at 1 uM relative to control.
The species named for experiment [18] is Homo sapiens. Description: Inhibition of human S6K assessed as residual activity at 1 uM relative to control.
Experiment [19] deals with Tyrosine-protein kinase BTK (Homo sapiens) (UniProt Q06187). Description: Inhibition of human BTK assessed as residual activity at 0.1 uM relative to control.
Experiment [20] has as its target Serine/threonine-protein kinase pim-1 (Homo sapiens) (UniProt P11309). The experiment can be described thus: Inhibition of human PIM1 assessed as residual activity at 1 uM relative to control.
The target of experiment [21] is High affinity nerve growth factor receptor (Homo sapiens, UniProt P04629). Description: Inhibition of human TRKA assessed as residual activity at 1 uM relative to control.

Sequence of Ribosomal protein S6 kinase alpha-5 (Homo sapiens) (O75582 whole entry, looked up): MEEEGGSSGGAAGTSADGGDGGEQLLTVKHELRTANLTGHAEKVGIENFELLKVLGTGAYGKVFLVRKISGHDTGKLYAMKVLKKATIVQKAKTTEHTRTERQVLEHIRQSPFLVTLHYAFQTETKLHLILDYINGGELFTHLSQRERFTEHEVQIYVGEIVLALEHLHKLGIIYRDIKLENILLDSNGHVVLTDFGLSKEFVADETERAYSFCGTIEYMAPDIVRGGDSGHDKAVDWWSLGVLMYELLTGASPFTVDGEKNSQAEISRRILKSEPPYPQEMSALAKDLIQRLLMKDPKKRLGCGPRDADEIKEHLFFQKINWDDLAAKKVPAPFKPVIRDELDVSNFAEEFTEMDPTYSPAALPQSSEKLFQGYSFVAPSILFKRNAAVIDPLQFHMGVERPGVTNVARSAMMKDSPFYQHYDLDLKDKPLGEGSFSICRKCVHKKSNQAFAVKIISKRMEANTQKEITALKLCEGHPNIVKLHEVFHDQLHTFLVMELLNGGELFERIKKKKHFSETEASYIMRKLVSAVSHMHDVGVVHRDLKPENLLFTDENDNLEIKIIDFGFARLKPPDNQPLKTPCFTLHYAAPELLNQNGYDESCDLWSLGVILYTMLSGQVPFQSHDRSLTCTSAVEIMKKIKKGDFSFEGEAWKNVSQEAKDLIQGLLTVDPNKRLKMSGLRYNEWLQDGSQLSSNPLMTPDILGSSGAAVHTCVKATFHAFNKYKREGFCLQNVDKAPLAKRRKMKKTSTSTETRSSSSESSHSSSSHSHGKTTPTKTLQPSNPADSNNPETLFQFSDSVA

Turning to `CNS(=O)(=O)c1ccc2c(c1)/C(=C/c1cn(C)c3ccc(OC)cc13)C(=O)N2`, the Activity was found to be 45% in experiment [1]; 88% in experiment [2]; 59% in experiment [3]; 92% in experiment [4]; 83% in the experiment filed under Homo sapiens [5]; 93% in [6]. The Activity stood at 89% in experiment [7]; 50% in experiment [8]; 87% in experiment [9]; 98% in [10]; 90% in [11]; 105% in experiment [12]. Moreover, the Activity in [13] was found to be 90%; in experiment [14], 99%; in experiment [15], 91%; in experiment [16] it was 76%; in experiment [17] it was 100%; in the experiment filed under Homo sapiens [18], 83%. The Activity worked out at 97% in [19], 88% in experiment [20] and 3% in experiment [21].
`Cn1cc(/C=C2\C(=O)Nc3ccc(S(N)(=O)=O)cc32)c2ccccc21`: the Activity in experiment [1] stood at 64%; in experiment [2], 93%; in [3], 81%; in experiment [4] it was 95%; in the experiment filed under Homo sapiens [5], 87%; in [6] it was 59%. In addition, the Activity in [7] turned out to be 88%; in [8], 25%; in [9], 91%; in [10], 94%; in experiment [11] it was 94%; in experiment [12], 102%. Moreover, the Activity in [13] was 90%; in experiment [14], 104%; in experiment [15], 82%; in experiment [16], 36%; in experiment [17], 96%; in the experiment listed under Homo sapiens [18], 81%. The figures for the Activity in experiment [19], in experiment [20] and in [21] were 111%, 93% and 2%, respectively.
Turning to `COc1ccc2c(c1)c(/C=C1\C(=O)Nc3ccc(S(N)(=O)=O)cc31)cn2C`, the Activity in experiment [1] turned out to be 65%; in experiment [2], 95%; in experiment [3], 85%; in experiment [4], 90%; in the experiment listed under Homo sapiens [5], 91%; in [6], 71%. In addition, the Activity in experiment [7] worked out at 87%; in experiment [8], 19%; in experiment [9], 93%; in experiment [10], 101%; in [11], 98%; in [12] it was 101%. For the same molecule, the Activity in experiment [13] was determined as 90%; in [14] it was 100%; in experiment [15], 84%; in experiment [16], 34%; in experiment [17], 94%; in the experiment filed under Homo sapiens [18] it was 92%. Besides, the values for the Activity in [19], in [20] and in [21] were 117%, 88% and 1%, respectively.
Turning to `CN(C)S(=O)(=O)c1ccc2c(c1)/C(=C/c1cn(C)c3ccc(O)cc13)C(=O)N2`, the Activity in experiment [1] came to 62%; in [2], 107%; in experiment [3], 93%; in [4] it was 99%; in the experiment filed under Homo sapiens [5] it was 103%; in [6], 98%. In addition, the Activity in experiment [7] was 88%; in experiment [8], 25%; in experiment [9] it was 91%; in [10], 110%; in experiment [11], 91%; in experiment [12], 97%. Further, the Activity was determined as 84% in [13]; 96% in experiment [14]; 87% in [15]; 80% in experiment [16]; 89% in experiment [17]; 92% in the experiment filed under Homo sapiens [18]. The Activity in [19] amounted to 95%; in [20], 95%; in experiment [21], 2%.
On to `COc1ccc2c(c1)c(/C=C1\C(=O)Nc3ccc(S(=O)(=O)N(C)C)cc31)cn2C`, for which the Activity in [1] is 81%; in [2], 108%; in experiment [3], 93%; in [4] it was 89%; in the experiment listed under Homo sapiens [5], 98%; in experiment [6], 97%. Further, the Activity in [7] was determined as 89%; in experiment [8], 30%; in experiment [9] it was 93%; in experiment [10], 103%; in experiment [11], 108%; in experiment [12], 98%. In addition, the Activity in experiment [13] is 91%; in [14], 97%; in experiment [15], 86%; in [16], 84%; in experiment [17], 90%; in the experiment listed under Homo sapiens [18] it was 85%. The Activity in experiment [19] stood at 89%; in experiment [20], 97%; in experiment [21] it was 6%.
Consider `COc1ccc2[nH]cc(/C=C3\C(=O)Nc4ccc(S(N)(=O)=O)cc43)c2c1`, for which the Activity in experiment [1] turned out to be 72%; in experiment [2], 95%; in experiment [3], 76%; in experiment [4], 95%; in the experiment filed under Homo sapiens [5], 84%; in experiment [6], 72%. For the same molecule, the Activity in [7] was found to be 92%; in experiment [8], 31%; in [9], 95%; in experiment [10] it was 94%; in [11], 96%; in [12] it was 90%. For the same molecule, the Activity is 83% in experiment [13]; 93% in experiment [14]; 79% in [15]; 66% in experiment [16]; 84% in [17]; 70% in the experiment listed under Homo sapiens [18]. The Activity in [19] was 100%; in [20] it was 79%; in experiment [21] it was 0%.

(Values after ChEMBL document CHEMBL4765228, “Indole-like Trk receptor antagonists” (Eur J Med Chem, 2016).)
